{"source": "paper PMC5538713", "about": "“RORγt and RORα signature genes in human Th17 cells” (PLoS ONE, 2017)", "assay_in_all_cases": "Cerep selectivity panel", "assay_type_in_all_cases": "binding", "key": {"[1]": {"biological_target": "T1, NK2 (h) (Homo sapiens, UniProt P21452)", "T1 construct": "purchased Cerep", "T1 sequence (P21452 1-398)": "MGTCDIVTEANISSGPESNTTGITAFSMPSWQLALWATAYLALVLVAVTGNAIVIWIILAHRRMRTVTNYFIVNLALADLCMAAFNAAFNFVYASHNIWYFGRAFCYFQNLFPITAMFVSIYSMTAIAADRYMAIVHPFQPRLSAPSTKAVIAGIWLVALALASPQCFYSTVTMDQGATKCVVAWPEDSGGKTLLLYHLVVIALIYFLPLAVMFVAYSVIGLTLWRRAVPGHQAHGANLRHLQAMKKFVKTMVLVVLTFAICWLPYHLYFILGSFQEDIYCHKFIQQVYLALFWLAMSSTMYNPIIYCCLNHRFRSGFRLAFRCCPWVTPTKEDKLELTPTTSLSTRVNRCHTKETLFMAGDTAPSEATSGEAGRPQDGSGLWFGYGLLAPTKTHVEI", "protocol": "(§1) Supplementary file pone.0181868.s003.docx: S3 Table Selectivity profile of RORγt inverse agonists A, B, C and D. Compounds were evaluated at 1 μM and 10 μM in a panel of assays against 50 receptors, ion channels and transporters (Profile service by Cerep Inc.). (DOCX) Click here for additional data file.\n(§2) S3 Table. RORɣt inverse agonists A, B, C and D were evaluated at 1 µM and 10 µM in a panel of assays against 50 receptors, ion channels and transporters (Profile service by Cerep Inc.)."}, "[2]": {"biological_target": "T2, M3 (h) (Homo sapiens, UniProt P20309)", "T2 construct": "purchased Cerep", "T2 sequence (P20309 whole entry)": "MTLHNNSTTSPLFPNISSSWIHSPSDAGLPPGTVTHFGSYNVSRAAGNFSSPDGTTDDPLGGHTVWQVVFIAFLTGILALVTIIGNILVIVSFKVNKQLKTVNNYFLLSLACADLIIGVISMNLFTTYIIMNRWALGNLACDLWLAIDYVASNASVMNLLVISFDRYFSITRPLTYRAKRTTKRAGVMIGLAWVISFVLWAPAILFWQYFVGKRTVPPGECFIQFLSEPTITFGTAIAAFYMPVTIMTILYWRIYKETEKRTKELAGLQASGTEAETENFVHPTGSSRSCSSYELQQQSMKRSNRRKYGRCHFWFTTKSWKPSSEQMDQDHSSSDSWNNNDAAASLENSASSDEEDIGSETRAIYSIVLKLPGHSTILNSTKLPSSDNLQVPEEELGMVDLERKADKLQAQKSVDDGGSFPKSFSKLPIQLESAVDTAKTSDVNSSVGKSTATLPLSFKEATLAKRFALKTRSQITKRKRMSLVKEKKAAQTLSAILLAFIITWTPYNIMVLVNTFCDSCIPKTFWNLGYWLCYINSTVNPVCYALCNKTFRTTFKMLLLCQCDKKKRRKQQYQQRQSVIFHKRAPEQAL", "protocol": "as §1, §2"}, "[3]": {"biological_target": "T3, OP1 (h) (Homo sapiens, UniProt P41143)", "T3 construct": "purchased Cerep", "conditions": "read-out: % Inhibition at 10µM", "protocol": "as §1, §2"}, "[4]": {"biological_target": "T4, 5HT2A (h) (Homo sapiens, UniProt P28223)", "T4 construct": "purchased Cerep", "T4 sequence (P28223 whole entry)": "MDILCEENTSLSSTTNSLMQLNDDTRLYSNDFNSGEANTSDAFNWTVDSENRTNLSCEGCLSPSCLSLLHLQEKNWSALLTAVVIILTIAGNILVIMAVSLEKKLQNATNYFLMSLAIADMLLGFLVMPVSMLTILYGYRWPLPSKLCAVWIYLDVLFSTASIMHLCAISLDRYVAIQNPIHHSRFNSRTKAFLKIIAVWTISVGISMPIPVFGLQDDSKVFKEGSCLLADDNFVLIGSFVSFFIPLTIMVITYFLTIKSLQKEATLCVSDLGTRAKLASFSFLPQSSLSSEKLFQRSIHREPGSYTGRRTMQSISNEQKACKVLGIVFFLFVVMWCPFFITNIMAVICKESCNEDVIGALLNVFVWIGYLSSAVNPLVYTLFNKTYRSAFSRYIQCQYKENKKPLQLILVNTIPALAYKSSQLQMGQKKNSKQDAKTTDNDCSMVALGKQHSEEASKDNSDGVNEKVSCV", "conditions": "read-out: % Inhibition at 10µM", "protocol": "as §1, §2"}, "[5]": {"biological_target": "T5, ORL1 (h) (Homo sapiens, UniProt P41146)", "T5 construct": "purchased Cerep", "T5 sequence (P41146 whole entry)": "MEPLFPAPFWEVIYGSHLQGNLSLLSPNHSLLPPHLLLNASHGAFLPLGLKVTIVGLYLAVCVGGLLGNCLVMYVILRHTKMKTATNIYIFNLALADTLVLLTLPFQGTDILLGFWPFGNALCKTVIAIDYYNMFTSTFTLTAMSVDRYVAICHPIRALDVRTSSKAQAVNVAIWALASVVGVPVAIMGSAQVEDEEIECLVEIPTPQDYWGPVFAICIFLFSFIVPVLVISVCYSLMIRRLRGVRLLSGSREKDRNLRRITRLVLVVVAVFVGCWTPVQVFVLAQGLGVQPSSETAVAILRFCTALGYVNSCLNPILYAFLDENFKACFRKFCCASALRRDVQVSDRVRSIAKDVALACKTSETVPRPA", "conditions": "read-out: % Inhibition at 1µM", "protocol": "as §1, §2"}, "[6]": {"biological_target": "T6, Ab1 (h) (Homo sapiens, UniProt P08588)", "T6 construct": "purchased Cerep", "T6 sequence (P08588 whole entry)": "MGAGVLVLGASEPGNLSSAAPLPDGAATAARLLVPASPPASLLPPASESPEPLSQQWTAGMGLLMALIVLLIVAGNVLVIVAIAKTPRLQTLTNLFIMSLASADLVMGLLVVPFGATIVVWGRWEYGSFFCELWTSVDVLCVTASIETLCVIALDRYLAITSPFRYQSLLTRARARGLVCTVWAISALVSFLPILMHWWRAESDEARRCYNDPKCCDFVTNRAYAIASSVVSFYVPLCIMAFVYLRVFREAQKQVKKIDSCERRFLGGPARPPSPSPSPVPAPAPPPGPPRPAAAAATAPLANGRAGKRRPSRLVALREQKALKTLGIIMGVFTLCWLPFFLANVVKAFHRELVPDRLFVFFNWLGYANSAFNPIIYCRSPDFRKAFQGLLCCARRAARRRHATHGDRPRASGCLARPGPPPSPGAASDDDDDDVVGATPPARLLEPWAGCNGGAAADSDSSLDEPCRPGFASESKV", "protocol": "as §1, §2"}, "[7]": {"biological_target": "T7, 5HT5A (h) (Homo sapiens, UniProt P47898)", "T7 construct": "purchased Cerep", "conditions": "read-out: % Inhibition at 10µM", "protocol": "as §1, §2"}, "[8]": {"biological_target": "T8, A2A (h) (Homo sapiens, UniProt P29274)", "T8 construct": "purchased Cerep", "T8 sequence (P29274 whole entry)": "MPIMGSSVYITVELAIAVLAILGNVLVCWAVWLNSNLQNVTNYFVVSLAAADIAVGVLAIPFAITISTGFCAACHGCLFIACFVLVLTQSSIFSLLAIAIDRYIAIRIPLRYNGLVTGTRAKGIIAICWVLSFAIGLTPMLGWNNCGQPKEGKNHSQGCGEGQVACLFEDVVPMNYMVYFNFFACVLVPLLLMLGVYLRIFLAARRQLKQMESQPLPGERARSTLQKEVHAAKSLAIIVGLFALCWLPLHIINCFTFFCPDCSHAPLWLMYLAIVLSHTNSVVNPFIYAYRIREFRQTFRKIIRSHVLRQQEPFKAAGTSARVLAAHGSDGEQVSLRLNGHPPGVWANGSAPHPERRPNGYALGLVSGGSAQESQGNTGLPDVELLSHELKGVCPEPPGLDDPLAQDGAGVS", "protocol": "as §1, §2"}, "[9]": {"biological_target": "T9, H1 (h) (Homo sapiens, UniProt P35367)", "T9 construct": "purchased Cerep", "conditions": "read-out: % Inhibition at 10µM", "protocol": "as §1, §2"}, "[10]": {"biological_target": "T10, MC4 (h) (Homo sapiens, UniProt P32245)", "T10 construct": "purchased Cerep", "T10 sequence (P32245 whole entry)": "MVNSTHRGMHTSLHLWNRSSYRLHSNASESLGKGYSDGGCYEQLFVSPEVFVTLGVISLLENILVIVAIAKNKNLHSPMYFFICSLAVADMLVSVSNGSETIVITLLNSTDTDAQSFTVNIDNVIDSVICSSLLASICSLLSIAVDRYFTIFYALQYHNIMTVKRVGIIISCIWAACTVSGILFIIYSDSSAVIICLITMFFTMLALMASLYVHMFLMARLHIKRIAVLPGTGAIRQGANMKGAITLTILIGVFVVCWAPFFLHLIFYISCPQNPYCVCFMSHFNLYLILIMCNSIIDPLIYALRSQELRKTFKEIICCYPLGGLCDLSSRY", "protocol": "as §1, §2"}, "[11]": {"biological_target": "T11, DA-T (Homo sapiens, UniProt Q01959)", "T11 construct": "purchased Cerep", "T11 sequence (Q01959 whole entry)": "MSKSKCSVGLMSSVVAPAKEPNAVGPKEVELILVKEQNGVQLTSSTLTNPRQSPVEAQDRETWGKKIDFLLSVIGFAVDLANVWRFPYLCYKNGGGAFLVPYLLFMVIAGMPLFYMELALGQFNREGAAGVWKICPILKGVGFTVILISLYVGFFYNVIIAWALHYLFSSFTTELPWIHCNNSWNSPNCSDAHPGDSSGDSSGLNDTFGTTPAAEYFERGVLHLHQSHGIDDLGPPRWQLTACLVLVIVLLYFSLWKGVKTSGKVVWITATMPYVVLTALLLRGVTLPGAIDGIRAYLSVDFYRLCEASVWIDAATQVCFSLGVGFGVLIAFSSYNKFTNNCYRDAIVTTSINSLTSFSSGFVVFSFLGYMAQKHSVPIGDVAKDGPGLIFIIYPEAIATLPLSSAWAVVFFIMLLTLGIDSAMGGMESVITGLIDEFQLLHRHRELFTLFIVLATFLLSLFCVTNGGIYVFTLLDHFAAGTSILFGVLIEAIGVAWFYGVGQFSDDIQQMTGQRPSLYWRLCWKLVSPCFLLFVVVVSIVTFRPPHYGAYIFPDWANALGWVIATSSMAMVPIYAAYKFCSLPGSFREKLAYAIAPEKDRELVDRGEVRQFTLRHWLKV", "protocol": "as §1, §2"}, "[12]": {"biological_target": "T12, OP3 (h) (Homo sapiens, UniProt P35372)", "T12 construct": "purchased Cerep", "T12 sequence (P35372 whole entry)": "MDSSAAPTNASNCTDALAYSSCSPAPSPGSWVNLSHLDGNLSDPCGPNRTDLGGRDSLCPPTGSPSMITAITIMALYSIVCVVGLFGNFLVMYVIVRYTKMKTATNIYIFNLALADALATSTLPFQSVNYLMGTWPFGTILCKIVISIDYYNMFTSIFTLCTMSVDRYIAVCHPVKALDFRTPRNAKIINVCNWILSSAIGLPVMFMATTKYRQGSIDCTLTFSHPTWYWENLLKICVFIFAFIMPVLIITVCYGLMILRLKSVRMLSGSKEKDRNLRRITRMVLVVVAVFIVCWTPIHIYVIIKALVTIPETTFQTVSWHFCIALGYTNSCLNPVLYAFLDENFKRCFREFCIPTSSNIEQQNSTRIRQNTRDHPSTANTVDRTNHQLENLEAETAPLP", "protocol": "as §1, §2"}, "[13]": {"biological_target": "T13, 5HT3 (h) (Homo sapiens, UniProt P46098)", "T13 construct": "purchased Cerep", "T13 sequence (P46098 24-478)": "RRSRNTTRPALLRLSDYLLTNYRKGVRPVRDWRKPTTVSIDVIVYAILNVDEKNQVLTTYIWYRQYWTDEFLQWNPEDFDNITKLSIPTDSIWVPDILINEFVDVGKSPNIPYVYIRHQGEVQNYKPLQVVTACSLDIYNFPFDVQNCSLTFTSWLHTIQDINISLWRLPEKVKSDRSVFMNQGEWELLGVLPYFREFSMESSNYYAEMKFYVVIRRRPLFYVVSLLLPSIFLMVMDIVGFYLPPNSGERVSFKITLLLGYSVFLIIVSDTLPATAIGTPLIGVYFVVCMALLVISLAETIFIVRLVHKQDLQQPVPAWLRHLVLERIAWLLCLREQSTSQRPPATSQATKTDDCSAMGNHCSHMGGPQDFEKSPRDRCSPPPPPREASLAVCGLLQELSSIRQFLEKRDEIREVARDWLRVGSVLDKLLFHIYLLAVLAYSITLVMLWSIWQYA", "protocol": "as §1, §2"}, "[14]": {"biological_target": "T14, 5-HT6 (h) (Homo sapiens, UniProt P50406)", "T14 construct": "purchased Cerep", "conditions": "read-out: % Inhibition at 10µM", "protocol": "as §1, §2"}, "[15]": {"biological_target": "T15, NE-T (Homo sapiens, UniProt P23975)", "T15 construct": "purchased Cerep", "T15 sequence (P23975 whole entry)": "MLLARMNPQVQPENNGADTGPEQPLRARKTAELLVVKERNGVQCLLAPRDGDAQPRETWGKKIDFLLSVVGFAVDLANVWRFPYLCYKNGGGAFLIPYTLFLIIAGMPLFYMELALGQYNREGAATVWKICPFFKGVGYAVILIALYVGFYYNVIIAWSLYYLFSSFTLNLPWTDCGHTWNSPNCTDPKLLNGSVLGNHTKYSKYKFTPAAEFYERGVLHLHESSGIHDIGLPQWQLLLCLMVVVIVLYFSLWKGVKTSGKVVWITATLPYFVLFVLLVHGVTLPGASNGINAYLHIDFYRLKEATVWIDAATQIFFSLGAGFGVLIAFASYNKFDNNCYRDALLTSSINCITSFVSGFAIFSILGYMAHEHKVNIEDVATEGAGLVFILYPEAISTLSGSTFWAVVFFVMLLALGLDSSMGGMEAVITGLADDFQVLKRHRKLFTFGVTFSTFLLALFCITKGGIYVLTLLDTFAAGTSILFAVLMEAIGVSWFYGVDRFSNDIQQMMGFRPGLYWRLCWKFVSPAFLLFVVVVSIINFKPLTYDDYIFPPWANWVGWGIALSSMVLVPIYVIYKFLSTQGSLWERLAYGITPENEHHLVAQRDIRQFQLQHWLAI", "protocol": "as §1, §2"}, "[16]": {"biological_target": "T16, D2S (h) (Homo sapiens, UniProt P14416)", "T16 construct": "purchased Cerep", "T16 sequence (P14416 1-414 isoform P14416-2)": "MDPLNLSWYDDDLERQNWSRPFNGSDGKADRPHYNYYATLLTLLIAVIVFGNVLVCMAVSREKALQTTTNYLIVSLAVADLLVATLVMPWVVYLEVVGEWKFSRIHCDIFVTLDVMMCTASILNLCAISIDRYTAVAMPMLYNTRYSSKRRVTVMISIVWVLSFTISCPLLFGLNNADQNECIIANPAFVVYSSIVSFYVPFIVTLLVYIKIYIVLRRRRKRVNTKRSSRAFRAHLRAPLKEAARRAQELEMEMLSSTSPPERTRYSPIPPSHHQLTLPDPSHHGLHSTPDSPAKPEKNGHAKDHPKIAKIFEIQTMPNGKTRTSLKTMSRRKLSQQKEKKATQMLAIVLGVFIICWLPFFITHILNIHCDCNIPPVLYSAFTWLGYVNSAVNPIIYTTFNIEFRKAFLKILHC", "protocol": "as §1, §2"}, "[17]": {"biological_target": "T17, D1 (h) (Homo sapiens, UniProt P21728)", "T17 construct": "purchased Cerep", "conditions": "read-out: % Inhibition at 10µM", "protocol": "as §1, §2"}, "[18]": {"biological_target": "T18, 5HT2B (h) (Homo sapiens, UniProt P41595)", "T18 construct": "purchased Cerep", "conditions": "read-out: % Inhibition at 10µM", "protocol": "as §1, §2"}, "[19]": {"biological_target": "T19, CXCR2 (h) (Homo sapiens, UniProt P25025)", "T19 construct": "purchased Cerep", "T19 sequence (P25025 1-360)": "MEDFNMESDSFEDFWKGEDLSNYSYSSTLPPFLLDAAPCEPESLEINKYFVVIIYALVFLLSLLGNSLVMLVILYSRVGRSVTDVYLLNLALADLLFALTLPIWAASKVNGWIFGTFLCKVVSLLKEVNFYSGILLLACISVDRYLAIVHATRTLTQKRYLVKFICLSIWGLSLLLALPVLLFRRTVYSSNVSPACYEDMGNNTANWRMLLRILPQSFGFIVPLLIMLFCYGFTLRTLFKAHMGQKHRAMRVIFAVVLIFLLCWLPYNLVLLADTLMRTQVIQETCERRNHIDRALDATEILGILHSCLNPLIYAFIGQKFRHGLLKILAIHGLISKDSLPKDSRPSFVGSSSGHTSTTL", "conditions": "read-out: % Inhibition at 10µM", "protocol": "as §1, §2"}}, "data": [{"compound": "CN(C)c1nc2ccc(C(O)(c3ccncc3)c3cncn3C)cc2c(Cl)c1-c1ccccc1", "note": "(centres unmarked) [compound D]", "values": [{"measurement": "inhibition at 1 µM", "setting": "[1]; read-out: % Inhibition at 1µM", "value": 9, "unit": "%"}, {"measurement": "inhibition at 10 µM", "setting": "[1]; read-out: % Inhibition at 10µM", "value": 98, "unit": "%"}, {"measurement": "inhibition at 1 µM", "setting": "[2]; read-out: % Inhibition at 1µM", "value": 33, "unit": "%"}, {"measurement": "inhibition at 10 µM", "setting": "[2]; read-out: % Inhibition at 10µM", "value": 70, "unit": "%"}, {"measurement": "inhibition at 10 µM", "setting": "[3]", "value": 36, "unit": "%"}, {"measurement": "inhibition at 10 µM", "setting": "[4]", "value": 22, "unit": "%"}, {"measurement": "inhibition at 1 µM", "setting": "[5]", "value": 5, "unit": "%"}, {"measurement": "inhibition at 1 µM", "setting": "[6]; read-out: % Inhibition at 1µM", "value": 3, "unit": "%"}, {"measurement": "inhibition at 10 µM", "setting": "[6]; read-out: % Inhibition at 10µM", "value": 2, "unit": "%"}, {"measurement": "inhibition at 10 µM", "setting": "[7]", "value": 42, "unit": "%"}, {"measurement": "inhibition at 1 µM", "setting": "[8]; read-out: % Inhibition at 1µM", "value": 2, "unit": "%"}, {"measurement": "inhibition at 10 µM", "setting": "[8]; read-out: % Inhibition at 10µM", "value": 43, "unit": "%"}, {"measurement": "inhibition at 10 µM", "setting": "[9]", "value": 27, "unit": "%"}, {"measurement": "inhibition at 1 µM", "setting": "[10]; read-out: % Inhibition at 1µM", "value": 3, "unit": "%"}, {"measurement": "inhibition at 10 µM", "setting": "[10]; read-out: % Inhibition at 10µM", "value": 25, "unit": "%"}, {"measurement": "inhibition at 1 µM", "setting": "[11]; read-out: % Inhibition at 1µM", "value": 23, "unit": "%"}, {"measurement": "inhibition at 10 µM", "setting": "[11]; read-out: % Inhibition at 10µM", "value": 87, "unit": "%"}, {"measurement": "inhibition at 1 µM", "setting": "[12]; read-out: % Inhibition at 1µM", "value": 3, "unit": "%"}, {"measurement": "inhibition at 10 µM", "setting": "[12]; read-out: % Inhibition at 10µM", "value": 30, "unit": "%"}, {"measurement": "inhibition at 1 µM", "setting": "[13]; read-out: % Inhibition at 1µM", "value": 8, "unit": "%"}, {"measurement": "inhibition at 10 µM", "setting": "[13]; read-out: % Inhibition at 10µM", "value": 17, "unit": "%"}, {"measurement": "inhibition at 10 µM", "setting": "[14]", "value": 18, "unit": "%"}, {"measurement": "inhibition at 1 µM", "setting": "[15]; read-out: % Inhibition at 1µM", "value": 5, "unit": "%"}, {"measurement": "inhibition at 10 µM", "setting": "[15]; read-out: % Inhibition at 10µM", "value": 76, "unit": "%"}, {"measurement": "inhibition at 1 µM", "setting": "[16]; read-out: % Inhibition at 1µM", "value": 7, "unit": "%"}, {"measurement": "inhibition at 10 µM", "setting": "[16]; read-out: % Inhibition at 10µM", "value": 25, "unit": "%"}, {"measurement": "inhibition at 10 µM", "setting": "[17]", "value": 40, "unit": "%"}, {"measurement": "inhibition at 10 µM", "setting": "[18]", "value": 106, "unit": "%"}, {"measurement": "inhibition at 10 µM", "setting": "[19]", "value": 17, "unit": "%"}]}]}
